The target in assay [1] is T1, PRMT5 (Homo sapiens, UniProt O14744).
T1 construct: purchased Viva (custom protein)
Kind of assay: PRMT5 IC50 assay with no cofactor. In kind it is biochemical. In short, it runs like this:
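IC50 values were measured against human PRMT5 with SAM, with MTA, or with no cofactor. Ki was derived from IC50 as Ki=IC50/1.5 with SAM and Ki=IC50/13.5 with MTA, and the Ki(SAM)/Ki(MTA) ratio was then taken.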

Assay [2] has as its target T1, PRMT5. Kind of assay: PRMT5 IC50 assay in the presence of SAM as cofactor. In kind it is biochemical. In short, it runs like this: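 Human PRMT5 inhibition, IC50 in μM; cofactor varied (SAM / MTA / none).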
A further assay concerns HAP1 MTAP-intact. The experiment in a line: SDMA in-cell western assay, HAP1 MTAP-intact cell line. The format is cell-based. The settings on record: Homo sapiens. In a few lines:
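Potency reflects cellular SDMA reduction, detected by in-cell western, in HAP1 cells with or without MTAP (endogenous expression versus null).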

Another assay deals with HAP1 MTAP-deleted. Kind of assay: SDMA in-cell western assay, HAP1 MTAP-deleted cell line. The format is cell-based. The settings on record: for IC50: Homo sapiens, HAP1 MTAP-deleted cell line; for MTAP Intact/Deleted Ratio: IC50 ratio HAP1 MTAP-intact / HAP1 MTAP-deleted. In short, it runs like this: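 These are IC50 values from an in-cell western measuring SDMA. The HAP1 cells used carry no MTAP, in contrast to the isogenic partner line with endogenous MTAP expression.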

The target in assay [3] is T1, PRMT5. Kind of assay: PRMT5 IC50 assay in the presence of MTA as cofactor. In kind it is biochemical. The settings on record: for IC50: PRMT5, MTA as cofactor. In a few lines:
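For the SAM-containing format, dividing IC50 by 1.5 yields Ki; for the MTA-containing format the divisor is 13.5. A third format without cofactor gives IC50 alone.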

Setting [4] is: ratio between Ki in the presence of SAM and Ki in the presence of MTA.
The mark [5] stands for this setting: ratio between the Ki in the presence of SAM and the Ki in the presence of MTA.

Molecules are shown by their SMILES.

T1 sequence (O14744 whole entry): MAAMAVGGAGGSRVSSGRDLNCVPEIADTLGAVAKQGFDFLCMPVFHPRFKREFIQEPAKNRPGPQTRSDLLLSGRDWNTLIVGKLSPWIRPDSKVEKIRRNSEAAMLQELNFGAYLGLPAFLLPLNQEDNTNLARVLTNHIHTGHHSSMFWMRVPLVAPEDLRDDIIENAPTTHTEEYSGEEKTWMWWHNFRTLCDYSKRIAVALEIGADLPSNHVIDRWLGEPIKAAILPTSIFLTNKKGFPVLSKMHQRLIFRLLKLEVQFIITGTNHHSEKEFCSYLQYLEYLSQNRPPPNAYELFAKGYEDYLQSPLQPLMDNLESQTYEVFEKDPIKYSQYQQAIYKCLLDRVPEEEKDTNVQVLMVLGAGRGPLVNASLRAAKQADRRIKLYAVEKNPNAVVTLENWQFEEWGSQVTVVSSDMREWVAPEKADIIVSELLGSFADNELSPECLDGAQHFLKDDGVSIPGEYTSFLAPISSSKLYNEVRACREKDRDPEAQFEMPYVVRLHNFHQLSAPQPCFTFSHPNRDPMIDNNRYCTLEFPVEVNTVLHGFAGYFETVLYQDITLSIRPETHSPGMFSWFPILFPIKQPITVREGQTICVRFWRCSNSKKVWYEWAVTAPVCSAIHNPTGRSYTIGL
T1 sequence (Q9BQA1 whole entry partner): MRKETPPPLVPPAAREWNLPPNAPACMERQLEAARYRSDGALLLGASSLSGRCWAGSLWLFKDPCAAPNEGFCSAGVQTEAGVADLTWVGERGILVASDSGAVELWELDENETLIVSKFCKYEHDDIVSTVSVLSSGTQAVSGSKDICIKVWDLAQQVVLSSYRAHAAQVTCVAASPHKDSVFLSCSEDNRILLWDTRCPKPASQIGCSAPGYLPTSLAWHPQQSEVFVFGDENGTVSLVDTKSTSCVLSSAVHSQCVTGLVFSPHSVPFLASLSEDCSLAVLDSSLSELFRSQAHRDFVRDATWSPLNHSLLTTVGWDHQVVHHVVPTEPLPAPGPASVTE

In the case of `Cc1ncoc1COc1ccc2c(c1C)CCN(C[C@@H](O)CNC(=O)c1cccc(NC3COC3)c1)C2` [Compound 375, N-[(2S)-2-hydroxy-3-{5-methyl-6-[(4-methyl-1,3-oxazol-5-yl)methoxy]-1,2,3,4-tetrahydroisoquinolin-2-yl}propyl]-3-[(oxetan-3-yl)amino]benzamide], the IC50 (in general, the concentration at which inhibition is half-maximal) on PRMT5 [1] (read-out: No Co-factor IC50) is at least 5 µM; at PRMT5 [2], 0.5 to 5 µM; with HAP1 MTAP-intact, at least 10 µM; in the assay on HAP1 MTAP-deleted, at least 10 µM; on PRMT5 [3] it was 0.5 to 5 µM. Moreover, the “MTAP Intact/Deleted Ratio” value in the assay with HAP1 MTAP-deleted was “C* (an IC50 ratio of less than 3 fold between the IC50 in the HAP1 MTAP-intact cell line and the HAP1 MTAP-deleted cell line)”. Moreover, the “SAM/MTA Ratio” value at PRMT5 [3] (setting [4]) is “A (a Ki ratio greater than or equal to 10 fold between the Ki in the presence of SAM and the Ki in the presence of MTA)”.

On to `Cc1ncoc1COc1ccc2c(c1)CCN(C[C@@H](O)CNC(=O)c1cc(NC3COC3)nc(N3CCCCC3)n1)C2` [Compound 405, N-[(2S)-2-hydroxy-3-{6-[(4-methyl-1,3-oxazol-5-yl)methoxy]-1,2,3,4-tetrahydroisoquinolin-2-yl}propyl]-6-[(oxetan-3-yl)amino]-2-(piperidin-1-yl)pyrimidine-4-carboxamide], for which the IC50 was 0.5 to 5 µM on PRMT5 [1] (read-out: No Co-factor IC50); 0.05 to 0.5 µM on PRMT5 [2]; under 1 µM with HAP1 MTAP-intact; under 1 µM with HAP1 MTAP-deleted; 0.05 to 0.5 µM at PRMT5 [3]. The “MTAP Intact/Deleted Ratio” value in the assay with HAP1 MTAP-deleted was “B* (an IC50 ratio greater than or equal to 3 fold but lower than 10 fold between the IC50 in the HAP1 MTAP-intact cell line and the HAP1 MTAP-deleted cell line)”. The “SAM/MTA Ratio” value at PRMT5 [3] (setting [4]) is “A (a Ki ratio greater than or equal to 10 fold between the Ki in the presence of SAM and the Ki in the presence of MTA)”.

In the case of `CC(=O)N1CCC(Nc2cc(C(=O)NC[C@H](O)CN3CCc4c(ccc(OCc5cnco5)c4Cl)C3)ncn2)CC1` [Compound 241, (S)-6-((1-acetylpiperidin-4-yl)amino)-N-(3-(5-chloro-6-(oxazol-5-ylmethoxy)-3,4-dihydroisoquinolin-2(1H)-yl)-2-hydroxypropyl)pyrimidine-4-carboxamide], the IC50 at PRMT5 [1] (read-out: No Co-factor IC50) is 0.5 to 5 µM; on PRMT5 [2] it was 0.05 to 0.5 µM; in the assay with HAP1 MTAP-intact, at least 10 µM; in the assay with HAP1 MTAP-deleted, 1 to 10 µM; on PRMT5 [3], 0.05 to 0.5 µM. Also, the “MTAP Intact/Deleted Ratio” value with HAP1 MTAP-deleted was “C* (an IC50 ratio of less than 3 fold between the IC50 in the HAP1 MTAP-intact cell line and the HAP1 MTAP-deleted cell line)”. Further, the “SAM/MTA Ratio” value at PRMT5 [3] (setting [4]) was “A (a Ki ratio greater than or equal to 10 fold between the Ki in the presence of SAM and the Ki in the presence of MTA)”.

For the compound `Cc1ncoc1COc1ccc2c(c1C)CCN(C[C@@H](O)CNC(=O)c1cc(NC3COC3)nc(N3CCCCC3)n1)C2` [Compound 391, N-[(2S)-2-hydroxy-3-{5-methyl-6-[(4-methyl-1,3-oxazol-5-yl)methoxy]-1,2,3,4-tetrahydroisoquinolin-2-yl}propyl]-6-[(oxetan-3-yl)amino]-2-(piperidin-1-yl)pyrimidine-4-carboxamide], the IC50 at PRMT5 [1] (read-out: No Co-factor IC50) was at least 5 µM; at PRMT5 [2], 0.05 to 0.5 µM; with HAP1 MTAP-intact it was at least 10 µM; in the assay on HAP1 MTAP-deleted it was under 1 µM; at PRMT5 [3] it was 0.05 to 0.5 µM. Further, in the assay on HAP1 MTAP-deleted, the “MTAP Intact/Deleted Ratio” value was “A* (an IC50 ratio greater than or equal to 10 fold between the IC50 in the HAP1 MTAP-intact cell line and the HAP1 MTAP-deleted cell line)”. In addition, on PRMT5 [3] (setting [4]), the “SAM/MTA Ratio” value is “A (a Ki ratio greater than or equal to 10 fold between the Ki in the presence of SAM and the Ki in the presence of MTA)”.

With `CCCC(=O)N1CC(Nc2cc(C(=O)NC[C@H](O)CN3CCc4cc(OCc5cnco5)ccc4C3)ccn2)C1` [Compound 434], the IC50 against PRMT5 [1] was at least 5 µM; on PRMT5 [2], 0.05 to 0.5 µM; in the assay with HAP1 MTAP-intact, 1 to 10 µM; in the assay with HAP1 MTAP-deleted, under 1 µM; at PRMT5 [3] it was 0.05 to 0.5 µM. The “MTAP Intact/Deleted Ratio” value in the assay with HAP1 MTAP-deleted was “C* (an IC50 ratio of less than 3 fold between the IC50 in the HAP1 MTAP-intact cell line and the HAP1 MTAP-deleted cell line)”. Also, the “SAM/MTA Ratio” value at PRMT5 [3] (setting [5]) was “A (a Ki ratio greater than or equal to 10 fold between the Ki in the presence of SAM and the Ki in the presence of MTA)”.

For the compound `CCN1CCN(c2nc(NC3COC3)cc(C(=O)NC[C@H](O)CN3CCc4cc(OCc5cnco5)ccc4C3)n2)CC1` [Compound 353], the IC50 fell in the range of 0.5 to 5 µM on PRMT5 [1] (read-out: No Co-factor IC50); 0.05 to 0.5 µM on PRMT5 [2]; 1 to 10 µM in the assay with HAP1 MTAP-intact; 1 to 10 µM with HAP1 MTAP-deleted; 0.05 to 0.5 µM on PRMT5 [3]. In addition, in the assay with HAP1 MTAP-deleted, the “MTAP Intact/Deleted Ratio” value was “C* (an IC50 ratio of less than 3 fold between the IC50 in the HAP1 MTAP-intact cell line and the HAP1 MTAP-deleted cell line)”. The “SAM/MTA Ratio” value at PRMT5 [3] (setting [4]) is “A (a Ki ratio greater than or equal to 10 fold between the Ki in the presence of SAM and the Ki in the presence of MTA)”.

For `O=C(NC[C@H](O)CN1CCc2c(ccc(OCc3cnco3)c2Cl)C1)c1ccc(OC2CCN(Cc3ccncc3)CC2)cc1` [Compound 301, (S)—N-(3-(5-chloro-6-(oxazol-5-ylmethoxy)-3,4-dihydroisoquinolin-2(1H)-yl)-2-hydroxypropyl)-4-((1-(pyridin-4-ylmethyl)piperidin-4-yl)oxy)benzamide], the IC50 is 0.5 to 5 µM at PRMT5 [1] (read-out: No Co-factor IC50); 0.05 to 0.5 µM on PRMT5 [2]; at least 10 µM in the assay on HAP1 MTAP-intact; 1 to 10 µM with HAP1 MTAP-deleted; 0.05 to 0.5 µM on PRMT5 [3]. Besides, the “MTAP Intact/Deleted Ratio” value in the assay with HAP1 MTAP-deleted was “C* (an IC50 ratio of less than 3 fold between the IC50 in the HAP1 MTAP-intact cell line and the HAP1 MTAP-deleted cell line)”. Moreover, the “SAM/MTA Ratio” value at PRMT5 [3] (setting [4]) is “A (a Ki ratio greater than or equal to 10 fold between the Ki in the presence of SAM and the Ki in the presence of MTA)”.

Consider `CC(=O)N1CCC(Nc2cc(C(=O)NC[C@H](O)CN3CCc4c(ccc(OCc5conc5C)c4C)C3)ncn2)CC1` [Compound 264, (S)-6-((1-acetylpiperidin-4-yl)amino)-N-(2-hydroxy-3-(5-methyl-6-((3-methylisoxazol-4-yl)methoxy)-3N-dihydroisoquinolin-2(1H)-yl)propyl)pyrimidine-4-carboxamide], for which the IC50 on PRMT5 [1] (read-out: No Co-factor IC50) is at least 5 µM; at PRMT5 [2], 0.5 to 5 µM; in the assay on HAP1 MTAP-intact, at least 10 µM; in the assay with HAP1 MTAP-deleted, at least 10 µM; at PRMT5 [3] it was 0.05 to 0.5 µM. In addition, the “MTAP Intact/Deleted Ratio” value in the assay with HAP1 MTAP-deleted was “C* (an IC50 ratio of less than 3 fold between the IC50 in the HAP1 MTAP-intact cell line and the HAP1 MTAP-deleted cell line)”. The “SAM/MTA Ratio” value at PRMT5 [3] (setting [4]) was “A (a Ki ratio greater than or equal to 10 fold between the Ki in the presence of SAM and the Ki in the presence of MTA)”.

Regarding `Cc1ncoc1COc1ccc2c(c1C)CCN(C[C@@H](O)CNC(=O)c1cc(NC3CCC3)ncn1)C2` [Compound 371, 6-(cyclobutylamino)-N-[(2S)-2-hydroxy-3-{5-methyl-6-[(4-methyl-1,3-oxazol-5-yl)methoxy]-1,2,3,4-tetrahydroisoquinolin-2-yl}propyl]pyrimidine-4-carboxamide], the IC50 was at least 5 µM on PRMT5 [1] (read-out: No Co-factor IC50); 0.5 to 5 µM on PRMT5 [2]; at least 10 µM in the assay with HAP1 MTAP-intact; under 1 µM with HAP1 MTAP-deleted; 0.05 to 0.5 µM on PRMT5 [3]. Moreover, the “MTAP Intact/Deleted Ratio” value in the assay on HAP1 MTAP-deleted was “A* (an IC50 ratio greater than or equal to 10 fold between the IC50 in the HAP1 MTAP-intact cell line and the HAP1 MTAP-deleted cell line)”. Further, the “SAM/MTA Ratio” value at PRMT5 [3] (setting [4]) was “A (a Ki ratio greater than or equal to 10 fold between the Ki in the presence of SAM and the Ki in the presence of MTA)”.

For `CC(=O)N1CC(Nc2cc(C(=O)NC[C@H](O)CN3CCc4cc(OCc5cnco5)ccc4C3)nc(N3CCOCC3)n2)C1` [Compound 583], the IC50 on PRMT5 [1] was 0.5 to 5 µM; on PRMT5 [2] it was 0.05 to 0.5 µM; in the assay on HAP1 MTAP-intact, at least 10 µM; with HAP1 MTAP-deleted, 1 to 10 µM; on PRMT5 [3] it was 0.05 to 0.5 µM. Besides, the “MTAP Intact/Deleted Ratio” value in the assay on HAP1 MTAP-deleted was “C* (an IC50 ratio of less than 3 fold between the IC50 in the HAP1 MTAP-intact cell line and the HAP1 MTAP-deleted cell line)”. Also, the “SAM/MTA Ratio” value on PRMT5 [3] (setting [5]) was “A (a Ki ratio greater than or equal to 10 fold between the Ki in the presence of SAM and the Ki in the presence of MTA)”.

As for `CCCC(=O)N1CCC(Nc2cc(C(=O)NC[C@H](O)CN3CCc4c(ccc(OCc5cnco5)c4Cl)C3)ccn2)CC1` [Compound 442, (S)-2-((1-butyrylpiperidin-4-yl)amino)-N-(3-(5-chloro-6-(oxazol-5-ylmethoxy)-3,4-dihydroisoquinolin-2(1H)-yl)-2-hydroxypropyl)isonicotinamide], the IC50 on PRMT5 [1] was 0.5 to 5 µM; on PRMT5 [2] it was 0.05 to 0.5 µM; with HAP1 MTAP-intact it was at least 10 µM; with HAP1 MTAP-deleted it was under 1 µM; on PRMT5 [3], 0.05 to 0.5 µM. Further, the “MTAP Intact/Deleted Ratio” value in the assay with HAP1 MTAP-deleted is “A* (an IC50 ratio greater than or equal to 10 fold between the IC50 in the HAP1 MTAP-intact cell line and the HAP1 MTAP-deleted cell line)”. In addition, the “SAM/MTA Ratio” value at PRMT5 [3] (setting [5]) was “A (a Ki ratio greater than or equal to 10 fold between the Ki in the presence of SAM and the Ki in the presence of MTA)”.

The record behind these values is patent publication US11986471B2, “Compounds and methods of use” (Tango Therapeutics, Inc., priority 2018, dated 2024).
